Calls of active or inactive are those of the source.
Experiments:
[1] = biological target: Nuclear receptor subfamily 5 group A member 2 (Homo sapiens, UniProt O00482); assay type: functional, cell-based;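 further: HEK293T cells transfected with LRH-1 and a StAR promoter luciferase reporter; potency for inhibitors that lower LRH-1 driven reporter light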
[2] = A Cell Based Secondary Assay To Explore Cytotoxicity of Compounds that Sensitize Mycobacterium Tuberculosis to Beta-Lactam Antibiotics.; assay type: functional
[3] = nonselective StAR promoter luciferase inhibitors – cell-based, luminescence, luciferase reporter, counter-screen for LRH-1 inverse agonist project, dose response (AID 651969); assay type: functional
Steroidogenic factor 1 = Steroidogenic factor 1 (Homo sapiens, UniProt Q13285); experiment: Counterscreen for inverse agonists of the liver receptor homolog-1 (LRH-1; NR5A2): Luminescence-based cell-based high throughput dose response assay to identify inverse agonists of the Steroidogenic Factor 1 Nuclear Receptor (SF1; NR5A1).; assay type: functional
Steroidogenic factor 1, sequence (Q13285 whole entry): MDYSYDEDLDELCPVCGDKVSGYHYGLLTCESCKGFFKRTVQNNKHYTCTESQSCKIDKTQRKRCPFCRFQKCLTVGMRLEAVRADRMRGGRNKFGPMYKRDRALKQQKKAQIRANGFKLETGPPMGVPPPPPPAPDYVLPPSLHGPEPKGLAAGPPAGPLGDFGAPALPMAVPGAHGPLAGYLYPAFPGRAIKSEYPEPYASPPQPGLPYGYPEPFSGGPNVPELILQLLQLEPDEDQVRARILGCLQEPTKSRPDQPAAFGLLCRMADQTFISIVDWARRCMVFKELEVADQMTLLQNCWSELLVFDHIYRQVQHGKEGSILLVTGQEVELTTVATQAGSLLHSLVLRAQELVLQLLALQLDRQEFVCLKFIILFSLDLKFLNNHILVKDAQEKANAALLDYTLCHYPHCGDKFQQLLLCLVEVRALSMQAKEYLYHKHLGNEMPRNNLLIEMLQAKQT

Vero = experiment: cells; assay type: functional; conditions: Chlorocebus sabaeus
[4] = blockers of CRF-binding protein–CRF-R2 complex – cell-based, uHTS hits, 384-well, dose response (AID 651639); assay type: functional, Homo sapiens; conditions: read-out: IC50_Mean
[5] = biological target: T1, Apoptotic protease-activating factor 1 (Homo sapiens, UniProt O14727); experiment: SAR analysis of small molecule Activators of Apaf-1 in a Fluorescent assay.; assay type: functional; conditions: read-out: EC50_Mean;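 further: caspase-3 cleavage of fluorogenic Rh110 DEVD substrate downstream of apoptosome activation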
T1 sequence (O14727 whole entry): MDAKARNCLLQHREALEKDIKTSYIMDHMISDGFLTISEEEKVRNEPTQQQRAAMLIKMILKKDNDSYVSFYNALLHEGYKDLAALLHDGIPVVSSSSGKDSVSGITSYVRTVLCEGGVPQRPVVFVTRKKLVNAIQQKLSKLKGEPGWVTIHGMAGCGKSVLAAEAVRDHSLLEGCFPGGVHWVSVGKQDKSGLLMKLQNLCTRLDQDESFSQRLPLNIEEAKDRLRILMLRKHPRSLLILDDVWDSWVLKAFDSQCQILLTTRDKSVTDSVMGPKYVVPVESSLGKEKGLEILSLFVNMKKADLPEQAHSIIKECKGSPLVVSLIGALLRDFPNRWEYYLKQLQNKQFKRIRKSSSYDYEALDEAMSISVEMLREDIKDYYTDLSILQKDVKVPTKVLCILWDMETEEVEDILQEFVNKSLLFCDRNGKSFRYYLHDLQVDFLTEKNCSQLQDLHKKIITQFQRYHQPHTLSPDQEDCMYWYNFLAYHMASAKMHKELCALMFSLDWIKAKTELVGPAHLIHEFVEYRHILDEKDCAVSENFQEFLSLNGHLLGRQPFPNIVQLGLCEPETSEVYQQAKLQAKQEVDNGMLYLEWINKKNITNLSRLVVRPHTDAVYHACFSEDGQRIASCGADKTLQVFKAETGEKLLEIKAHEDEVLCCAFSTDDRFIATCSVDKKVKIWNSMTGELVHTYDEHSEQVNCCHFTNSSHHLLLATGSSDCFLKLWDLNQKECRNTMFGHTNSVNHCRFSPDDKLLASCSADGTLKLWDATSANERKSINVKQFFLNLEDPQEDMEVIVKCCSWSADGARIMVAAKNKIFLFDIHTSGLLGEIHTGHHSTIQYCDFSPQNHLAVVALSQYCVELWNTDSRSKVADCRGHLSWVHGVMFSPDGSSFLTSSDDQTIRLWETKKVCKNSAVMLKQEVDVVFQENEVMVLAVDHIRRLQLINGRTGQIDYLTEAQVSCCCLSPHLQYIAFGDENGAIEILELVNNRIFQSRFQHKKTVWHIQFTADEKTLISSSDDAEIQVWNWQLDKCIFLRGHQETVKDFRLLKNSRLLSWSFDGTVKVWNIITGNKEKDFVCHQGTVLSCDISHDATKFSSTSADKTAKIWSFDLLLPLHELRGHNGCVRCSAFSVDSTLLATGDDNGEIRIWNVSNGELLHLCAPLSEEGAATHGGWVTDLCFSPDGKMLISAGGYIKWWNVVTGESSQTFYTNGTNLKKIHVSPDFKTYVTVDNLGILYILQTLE

Nuclear receptor subfamily 5 group A member 2, sequence (O00482 whole entry): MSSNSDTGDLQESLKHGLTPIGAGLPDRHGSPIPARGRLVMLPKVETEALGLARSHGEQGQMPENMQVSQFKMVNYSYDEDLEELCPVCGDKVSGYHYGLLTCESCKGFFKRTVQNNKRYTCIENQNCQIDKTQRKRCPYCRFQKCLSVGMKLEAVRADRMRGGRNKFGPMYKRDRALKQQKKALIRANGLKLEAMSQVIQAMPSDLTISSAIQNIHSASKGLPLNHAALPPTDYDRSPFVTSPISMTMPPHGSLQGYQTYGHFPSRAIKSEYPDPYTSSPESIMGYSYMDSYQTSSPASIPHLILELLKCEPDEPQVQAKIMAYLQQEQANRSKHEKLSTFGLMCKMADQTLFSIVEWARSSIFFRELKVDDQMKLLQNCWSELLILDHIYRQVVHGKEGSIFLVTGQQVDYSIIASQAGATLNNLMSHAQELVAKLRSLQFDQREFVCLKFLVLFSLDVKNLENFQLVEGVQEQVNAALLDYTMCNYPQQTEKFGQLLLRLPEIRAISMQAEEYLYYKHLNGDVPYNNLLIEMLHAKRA

For `Cc1onc(NC(=O)c2ccc([N+](=O)[O-])o2)c1Br`, the IC50 [1] was 1.33 µM (active), the CC50 [2] was 8.19 µM (active) and the IC50 [3] was 35.9 µM (inactive). The IC50 (Steroidogenic factor 1) was 0.369 µM (active) and the CC50 (Vero) was 20.8 µM (active).
With `CN(C(=O)COC(=O)CCc1nc(O)c2ccccc2n1)C1CCS(=O)(=O)C1` (configuration not stated) the IC50 [4] was > 20 µM (inactive).
For `CCOC(=O)C1CCc2[nH]c3ccc(OC)cc3c2C1` (configuration not stated), the EC50 [5] was > 100 µM (inactive).

Source: ChEMBL document CHEMBL1201862, “PubChem BioAssay data set” (2004)
